SMILES strings stand for the structures. Bounds are passed on as bounds.

This is an account of results in patent US10383861B2, “3-(1H-pyrrolo[2,3-C]pyridin-2-yl)-1H-pyrazolo[3,4-C]pyridines and therapeutic uses thereof” (Samumed, LLC, priority 2015, dated 2019).

What all share (type): cell-based
One assay deals with Wnt activity. As to the kind of experiment: Wnt activity screening assay, Sp5-Luc reporter gene in SW480 cells. Particulars: Homo sapiens; for inhibition at 10 µM: SW480, read-out: percent inhibition at 10 μM; for EC50: Sp5-Luc reporter, SW480 cells, overnight incubation. The source says:
The screening assay for Wnt activity is described as follows. Reporter cell lines can be generated by stably transducing cancer cell lines (e.g., colon cancer) or primary cells (e.g., IEC-6 intestinal cells) with a lentiviral construct that includes a Wnt-responsive promoter driving expression of the firefly luciferase gene.
SW480 colon carcinoma cells were transduced with a lentiviral vector expressing luciferase with a human Sp5 promoter consisting of a sequence of eight TCF/LEF binding sites. SW480 cells stably expressing the Sp5-Luc reporter gene and a hygromycin resistance gene were selected by treatment with 150 μg/mL of hygromycin for 7 days. These stably transduced SW480 cells were expanded in cell culture and used for all further screening activities. […] For Sp5-Luc reporter gene assays, the cells were plated at 4,000 cells/well in 384-well plates with medium containing 1% fetal bovine serum and incubated overnight at 37° C. and 5% CO2. Following incubation, 20 μl of BrightGlo luminescence reagent (Promega) was added to each well of the 384-well assay plates. The plates were placed on an orbital shaker for 2 min and then luminescence was quantified using the Envision (Perkin Elmer) plate reader. Readings were normalized to DMSO only treated cells, and normalized activities were utilized for EC50 calculations using the dose-response log (inhibitor) vs. response -variable slope (four parameters) nonlinear regression feature available in GraphPad Prism 5.0 (or Dotmatics).

A further assay has as its system IL-6. As to the kind of experiment: IL-6 inhibition in LPS-stimulated THP-1 cells (HTRF). To be noted: Homo sapiens; for inhibition at 10 µM: THP-1, read-out: percent inhibition at 10 μM; for EC50: THP-1 cells, LPS 500 ng/mL, 22 hours, IL6 HTRF. How it is done: THP-1 cells were cultured in basal media with 1% FBS for 24 hours before the start of the assay. […] THP-1 cells were plated at 5000 cells/well in the 384-well plates and incubated at 37° C. for 2 h. 500 ng/mL of LPS was added after 2 hours and cells were incubated for another 22 hours at 37° C. Plates were spun in a centrifuge for 1 minute at […] and a mixture of anti-IL6 XL665, and anti-IL6 Cryptate diluted in reconstitution buffer (Cisbio Inc.) was added to each well. Following incubation for 3 hrs at room temperature, Homogeneous Time-Resolved Fluorescence (HTRF) was measured using the Envision (Perkin Elmer) at 665 nm and […]. The ratio of fluorescence at 665 nm to 620 nm was used as a readout for IL6 quantification. All samples were processed in duplicate. Readings were normalized to DMSO treated cells and normalized activities were utilized for EC50 calculations using the dose-response log (inhibitor) vs. response -variable slope (four parameters) nonlinear regression feature available in GraphPad Prism 5.0 (or Dotmatics).

Assay [1] relates to primary human mesenchymal stem cells (hMSCs). Put plainly: Induction of chondrogenesis in hMSCs (nodule count, Rhodamine B/Nile Red). Particulars: 6 days. From the text:
Representative compounds were screened using primary human mesenchymal stem cells (hMSCs) to determine their ability to induce chondrogenesis (process by which cartilage is developed).
Primary human mesenchymal stem cells (hMSCs) were purchased from Lonza (Walkersville, Md.) and expanded in Mesenchymal Stem Cell Growth Media (Lonza). Cells between passage 3 and 6 were used for the experiments.
To image chondrogenic nodules, the cells were fixed using 4% formaldehyde (Electron Microscopy Sciences), and stained with 2 μg/mL Rhodamine B (Sigma-Aldrich) and 20 μM Nile Red (Sigma-Aldrich) [Johnson K., et.al, A Stem Cell-Based Approach to Cartilage Repair, Science, (2012). […] Number of nodules in each well was normalized to the average of 3 DMSO treated wells on the same plate using Excel (Microsoft Inc.). The normalized averages (fold change over DMSO) of 3 replicate wells for each compound concentration were calculated. Due to solubility limitations of some of the compounds, curve fitting was incomplete leading to inaccurate EC50 determinations.
Using TGF-β3 as a positive control, the concentration of representative compounds required to induce 50% levels of chondrogenesis is reported. In addition, the maximum activity of each compound and the respective dose that each compound reached maximum chondrogenesis activity is reported.

Assay [2] concerns primary human fibroblasts derived from IPF patients (LL29 cells). Put plainly: Inhibition of the fibrotic process: αSMA staining in TGF-β1 treated LL29 fibroblasts. To be noted: Fibroblast; for EC50: 96 h, LL29 cells, TGF-β1 20 ng/mL, 4 days, % αSMA positive cells; for inhibition at 10 µM: read-out: percent inhibition at 10 μM. How it is done: Representative compounds were screened using primary human fibroblasts (derived from IPF patients) treated with TGF-β1 to determine their ability to inhibit the fibrotic process.
LL29 cells are plated at 1,500 cells/well in 80 μL/well F12 medium supplemented with 1% Fetal Bovine Serum. […] Wells treated with TGF-β1 and containing DMSO were used as controls. […] Following incubation for 4 days, SYTOX green nucleic acid stain (Life Technologies [Thermo Fisher Scientific]) was added to the wells at a final concentration of 1 μM and incubated at room temperature for 30 min.

For a further assay, the system named is SW480 colon cancer cells. Put plainly: Cell viability assay (CellTiter-Blue) in SW480 colon cancer cells. Particulars: Homo sapiens; for EC50: 96 h, SW480 cell viability, four days, CellTiter-Blue; for inhibition at 10 µM: SW480, read-out: percent inhibition at 10 μM. Here is the method:
Representative compounds were screened using the following assay procedure to assess the effect on cell viability as described below.
Approximately 2×10^3 SW480 colon cancer cells were seeded into each well and allowed to incubate in the presence or absence of compound for four days at 37° C./5% CO2. Eight replicates of DMSO-treated cells served as controls and cells treated with compound were performed in duplicate.
After incubation, 20 μL of CellTiter-Blue (Promega) was added to each well allowed to incubate for approximately 3 hours. This reagent was a buffered solution which contains resazurin, metabolically active cells were able to reduce rezarurin (blue) into resorufin (pink) which was highly fluorescent. This measured fluorescence was used as a readout for cell viability.

As for `CN(C)Cc1cncc(-c2cc3c(-c4cc5c(-c6ccncc6)cncc5[nH]4)n[nH]c3cn2)c1` [Compound 125, N,N-Dimethyl-1-(5-(3-(4-(pyridin-4-yl)-1H-pyrrolo[2,3-c]pyridin-2-yl)-1H-pyrazolo[3,4-c]pyridin-5-yl)pyridin-3-yl)methanamine], the inhibition at 10 µM with Wnt activity came to 18.7%; in the assay with IL-6, 0%; in assay [2], 2.9%; with SW480 colon cancer cells, 5.3%. Moreover, the EC50 in the assay with Wnt activity is more than 10 µM; in the assay on IL-6, more than 10 µM; in assay [1] (concentration required to induce 50% levels of chondrogenesis vs TGF-β3, read-out: Conc (nM) of 50% TGF-β3 activity), 30 nM; in assay [2], more than 10 µM; with SW480 colon cancer cells, more than 10 µM. For the same molecule, the Emax in assay [1] (relative to TGF-β3 (10 ng/mL) positive control, read-out: Max. Activity as % TGF-β3 activity) came to 52%.

For the molecule `O=C(Cc1ccccc1)Nc1cncc(-c2cc3c(-c4cc5c(-c6cccnc6)cncc5[nH]4)n[nH]c3cn2)c1` [Compound 94, 2-Phenyl-N-(5-(3-(4-(pyridin-3-yl)-1H-pyrrolo[2,3-c]pyridin-2-yl)-1H-pyrazolo[3,4-c]pyridin-5-yl)pyridin-3-yl)acetamide], the inhibition at 10 µM in the assay on Wnt activity was 12.2%; in assay [2], 0%; in the assay with SW480 colon cancer cells, 28.9%. Further, the EC50 was more than 10 µM in the assay with Wnt activity, 3.05 µM in the assay with IL-6, more than 10 µM in assay [2] and more than 10 µM in the assay on SW480 colon cancer cells.

As for `CC(C)(C)CC(=O)Nc1cncc(-c2cc3c(-c4cc5c(-c6ccc(F)cc6)cncc5[nH]4)n[nH]c3cn2)c1` [Compound 44, N-(5-(3-(4-(4-Fluorophenyl)-1H-pyrrolo[2,3-c]pyridin-2-yl)-1H-pyrazolo[3,4-c]pyridin-5-yl)pyridin-3-yl)-3,3-dimethylbutanamide], the EC50 was 0.679 µM with Wnt activity, more than 10 µM in the assay on IL-6, 0.434 µM in assay [2] and 3.51 µM with SW480 colon cancer cells. Moreover, in the assay on IL-6, the inhibition at 10 µM was determined as 16.2%.

Take `CN(C)Cc1cncc(-c2cc3c(-c4cc5ccncc5[nH]4)n[nH]c3cn2)c1` [Compound 265, 1-(5-(3-(1H-Pyrrolo[2,3-c]pyridin-2-yl)-1H-pyrazolo[3,4-c]pyridin-5-yl)pyridin-3-yl)-N,N-dimethylmethanamine]: the EC50 in the assay with Wnt activity was 2.54 µM; with IL-6, 3.11 µM; in assay [2] it was 1.48 µM; with SW480 colon cancer cells it was 2.65 µM.

On to `O=C(Nc1cncc(-c2cc3c(-c4cc5c(-c6ccc(F)cc6)cncc5[nH]4)n[nH]c3cn2)c1)C1CCC1` [Compound 49, N-(5-(3-(4-(4-Fluorophenyl)-1H-pyrrolo[2,3-c]pyridin-2-yl)-1H-pyrazolo[3,4-c]pyridin-5-yl)pyridin-3-yl)cyclobutanecarboxamide], for which the EC50 with Wnt activity is 3.65 µM; with IL-6, more than 10 µM; in assay [2] it was 3.04 µM; with SW480 colon cancer cells, more than 10 µM. For the same molecule, the inhibition at 10 µM in the assay on IL-6 was 42.5%; in the assay on SW480 colon cancer cells, 36%.

In the case of `Fc1ccccc1-c1cncc2[nH]c(-c3n[nH]c4cnc(-c5ccccn5)cc34)cc12` [Compound 84, 3-(4-(2-Fluorophenyl)-1H-pyrrolo[2,3-c]pyridin-2-yl)-5-(pyridin-2-yl)-1H-pyrazolo[3,4-c]pyridine], the EC50 in the assay with Wnt activity worked out at 1.06 µM; in the assay with IL-6 it was 3.03 µM; in assay [2] it was 1.39 µM; with SW480 colon cancer cells, 1.29 µM.

As to `CS(=O)(=O)NCc1cc(F)cc(-c2cncc3[nH]c(-c4n[nH]c5cnc(-c6ccccn6)cc45)cc23)c1` [Compound 504, N-(3-Fluoro-5-(2-(5-(pyridin-2-yl)-1H-pyrazolo[3,4-c]pyridin-3-yl)-1H-pyrrolo[2,3-c]pyridin-4-yl)benzyl)methanesulfonamide], the EC50 was found to be 2.38 µM with Wnt activity, 0.943 µM in the assay on IL-6, 2.01 µM in assay [2] and 2.98 µM in the assay on SW480 colon cancer cells.

For `CCC(=O)Nc1cncc(-c2cc3c(-c4cc5c(-c6ccc(F)cc6)cncc5[nH]4)n[nH]c3cn2)c1` [Compound 29, N-(5-(3-(4-(4-Fluorophenyl)-1H-pyrrolo[2,3-c]pyridin-2-yl)-1H-pyrazolo[3,4-c]pyridin-5-yl)pyridin-3-yl)propionamide], the inhibition at 10 µM in the assay with Wnt activity is 37.8%; in the assay with IL-6 it was 43%; in assay [2], 49.1%; with SW480 colon cancer cells, 29.6%. Further, the EC50 (in the assay on Wnt activity; in the assay on IL-6; in assay [2]; in the assay with SW480 colon cancer cells) was more than 10 µM each time.

`CC(C)CC(=O)Nc1cncc(-c2cc3c(-c4cc5c(-c6cccc(F)c6)cncc5[nH]4)n[nH]c3cn2)c1` [Compound 2, N-(5-(3-(4-(3-Fluorophenyl)-1 H-pyrrolo[2,3-c]pyridin-2-yl)-1 H-pyrazolo[3,4-c]pyridin-5-yl)pyridin-3-yl)-3-methylbutanamide]: the inhibition at 10 µM in the assay on Wnt activity was 5.6%; in the assay with IL-6, 37.2%; in the assay on SW480 colon cancer cells, 25.4%. The EC50 in the assay on Wnt activity is more than 10 µM; in the assay with IL-6, more than 10 µM; in assay [2] it was 2.23 µM; in the assay on SW480 colon cancer cells, more than 10 µM.

Consider `CS(=O)(=O)NCc1cc(F)cc(-c2cncc3[nH]c(-c4n[nH]c5cnc(-c6cncc(NC(=O)C7CCCCC7)c6)cc45)cc23)c1` [Compound 499, N-(5-(3-(4-(3-Fluoro-5-(methylsulfonamidomethyl)phenyl)-1H-pyrrolo[2,3-c]pyridin-2-yl)-1H-pyrazolo[3,4-c]pyridin-5-yl)pyridin-3-yl)cyclohexanecarboxamide], for which the inhibition at 10 µM in the assay on Wnt activity amounted to 11.3%; in the assay on IL-6, 36.6%; in assay [2] it was 0%; in the assay with SW480 colon cancer cells it was 15.5%. The EC50 (with Wnt activity; in the assay on IL-6; in assay [2]; in the assay with SW480 colon cancer cells) was more than 10 µM in each case.

Regarding `O=C(Nc1cncc(-c2cc3c(-c4cc5c(-c6ccncc6)cncc5[nH]4)n[nH]c3cn2)c1)c1ccccc1` [Compound 123, N-(5-(3-(4-(Pyridin-4-yl)-1H-pyrrolo[2,3-c]pyridin-2-yl)-1H-pyrazolo[3,4-c]pyridin-5-yl)pyridin-3-yl)benzamide], the inhibition at 10 µM is 8% in the assay on Wnt activity, 19% in the assay on IL-6, 53.6% in assay [2] and 20.9% in the assay with SW480 colon cancer cells. Besides, the EC50 (in the assay with Wnt activity; with IL-6; in assay [2]; in the assay with SW480 colon cancer cells) was more than 10 µM throughout.
